In patent US9695155B2, “Herbicidal substituted pyrimidinyloxy benzene compounds” (E. I. DU PONT DE NEMOURS AND COMPANY, priority 2013, dated 2017):

Experiments:
bluegrass = assay: Test D postemergence; assay type: in vivo, Poa annua; details: Poa annua, post-emergence, Postemergence, scale 0 to 100 (0 no effect, 100 complete control), read-out: Plant response rating, Bluegrass; for pest or weed control at 31 g/ha: 31 g ai/ha; for pest or weed control at 62 g/ha: 62 g ai/ha; for pest or weed control at 125 g/ha: 125 g ai/ha
Description: Seeds of plant species selected from bluegrass (annual bluegrass, Poa annua), blackgrass (Alopecurus myosuroides), canarygrass (littleseed canarygrass, Phalaris minor), chickweed (common chickweed, Stellaria media), galium (catchweed bedstraw, Galium aparine), bromegrass, downy (downy bromegrass, Bromus tectorum), field poppy (Papaver rhoeas), field violet (Viola arvensis), green foxtail (Setaria viridis), deadnettle (henbit deadnettle, Lamium amplexicaule), Italian ryegrass (Lolium multiflorum), kochia (Kochia scoparia), lambsquarters (Chenopodium album), oilseed rape (Brassica napus), pigweed (Amaranthus retroflexus), chamomile (scentless chamomile, Matricaria inodora), Russian thistle (Salsola kali), speedwell (bird's-eye speedwell, Veronica persica), spring barley (Hordeum vulgare), spring wheat (Triticum aestivum), wild buckwheat (Polygonum convolvulus), wild mustard (Sinapis arvensis), wild oat (Avena fatua), wild radish (Raphanus raphanistrum), windgrass (Apera spica-venti), winter barley (Hordeum vulgare), and winter wheat (Triticum aestivum) were planted into a silt loam soil and treated preemergence with test chemicals formulated in a non-phytotoxic solvent mixture which included a surfactant.
At the same time, these species were planted in pots containing Redi-Earth® planting medium (Scotts Company, 14111 Scottslawn Road, Marysville, Ohio 43041) comprising spaghnum peat moss, vermiculite, wetting agent and starter nutrients and treated with postemergence applications of the test chemicals formulated in the same manner. Plants ranged in height from 2 to 18 cm (1- to 4-leaf stage). Treated plants and controls were maintained in a controlled growth environment for 7 to 21 days after which time all species were compared to controls and visually evaluated. Plant response ratings, summarized in Table D, are based on a scale of 0 to 100 where 0 is no effect and 100 is complete control. A dash (-) response means no test result.

corn [1] = assay: Test E preemergence; assay type: in vivo, Zea mays; details: for Corn plant response rating: scale 0 to 100 (0 no effect, 100 complete control); for Plant response rating, Corn: scale 0 to 100, 0 no effect, 100 complete control
Outline: (§1)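 Response was scored visually on a 0-100 scale (100 = complete control) versus controls after 14 to 21 days in the greenhouse. Test chemicals, formulated with surfactant in a non-phytotoxic solvent mixture, had been applied preemergence to seeds in silt loam soil or postemergence to 1- to 4-leaf plants in potting medium.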

surinam grass = assay: Test E preemergence; assay type: in vivo, Brachiaria decumbens; details: for Surinam Grass plant response rating: scale 0 to 100 (0 no effect, 100 complete control); for Plant response rating, Surinam Grass: scale 0 to 100, 0 no effect, 100 complete control
Outline: as §1

fall panicum = assay: Test E preemergence; assay type: in vivo, Panicum dichotomiflorum; details: for Panicum, Fall plant response rating: scale 0 to 100 (0 no effect, 100 complete control); for Plant response rating, Panicum, Fall: scale 0 to 100, 0 no effect, 100 complete control
Outline: as §1

green foxtail = assay: Test E preemergence; assay type: in vivo, Setaria viridis; details: for Foxtail, Green plant response rating: scale 0 to 100 (0 no effect, 100 complete control); for Plant response rating, Foxtail, Green: scale 0 to 100, 0 no effect, 100 complete control
Outline: as §1

barnyardgrass [2] = assay: Test E preemergence; assay type: in vivo, Echinochloa crus-galli; details: for Barnyardgrass plant response rating: scale 0 to 100 (0 no effect, 100 complete control); for Plant response rating, Barnyardgrass: scale 0 to 100, 0 no effect, 100 complete control
Outline: as §1

arrowleaf sida = assay: Test E preemergence; assay type: in vivo, Sida rhombifolia; details: for Arrowleaf Sida plant response rating: scale 0 to 100 (0 no effect, 100 complete control); for Plant response rating, Arrowleaf Sida: scale 0 to 100, 0 no effect, 100 complete control
Outline: as §1

field bindweed = assay: Test E preemergence; assay type: in vivo, Convolvulus arvensis; details: for Field Bindweed plant response rating: scale 0 to 100 (0 no effect, 100 complete control); for Plant response rating, Field Bindweed: scale 0 to 100, 0 no effect, 100 complete control
Outline: as §1

kochia = assay: Test E preemergence; assay type: in vivo, Kochia scoparia; details: for Kochia plant response rating: scale 0 to 100 (0 no effect, 100 complete control); for Plant response rating, Kochia: scale 0 to 100, 0 no effect, 100 complete control
Outline: as §1

corn [3] = assay: Test E postemergence; assay type: in vivo, Zea mays; details: Zea mays, post-emergence
Outline: as §1

wild poinsettia = assay: Test E postemergence; assay type: in vivo, Euphorbia heterophylla; details: Euphorbia heterophylla, post-emergence, read-out: Plant response rating, Poinsettia, Wild
Outline: as §1

palmer pigweed = assay: Test E postemergence; assay type: in vivo, Amaranthus palmeri; details: post-emergence, read-out: Plant response rating, Pigweed, Palmer
Outline: as §1

barnyardgrass [4] = assay: Test E postemergence; assay type: in vivo, Echinochloa crus-galli; details: Echinochloa crus-galli, post-emergence, read-out: Plant response rating, Barnyardgrass
Outline: as §1

[5] = Postemergence, 31 g ai/ha, scale 0 to 100
[6] = Postemergence, 62 g ai/ha, scale 0 to 100
[7] = Postemergence, 125 g ai/ha, scale 0 to 100
[8] = postemergence, 16 g ai/ha, scale 0 to 100, 0 no effect, 100 complete control

SMILES: Fc1cccc(Oc2ncc(Cl)cn2)c1-n1cc(C(F)F)nn1 [Compound 141, 5-chloro-2-[2-[4-(difluoromethyl)-1H-1,2,3-triazol-1-yl]-3-fluorophenoxy]pyrimidine]
- pest or weed control at 16 g/ha (bluegrass; 16 g ai/ha): 5%
- pest or weed control at 31 g/ha (bluegrass): 20%
- pest or weed control at 62 g/ha (bluegrass): 35%
- pest or weed control at 125 g/ha (bluegrass): 40%

SMILES: N#Cc1cccc(Oc2ncc(Cl)cn2)c1-n1cc(Br)cn1 [Compound 52, 2-(4-bromo-1H-pyrazol-1-yl)-3-[(5-chloro-2-pyrimidinyl)oxy]benzonitrile]
- pest or weed control at 31 g/ha (bluegrass): 15%
- pest or weed control at 62 g/ha (bluegrass): 20%
- pest or weed control at 125 g/ha (bluegrass): 15%
- pest or weed control at 250 g/ha (bluegrass; 250 g ai/ha): 25%
- Corn plant response rating (corn [1]; 16 g ai/ha): 0
- Corn plant response rating (corn [1]; 31 g ai/ha): 0
- Corn plant response rating (corn [1]; 62 g ai/ha): 0
- Plant response rating, Corn (corn [1]; 125 g ai/ha): 0
- Plant response rating, Corn (corn [1]; 250 g ai/ha): 40
- Surinam Grass plant response rating (surinam grass; 16 g ai/ha): 0
- Surinam Grass plant response rating (surinam grass; 31 g ai/ha): 0
- Surinam Grass plant response rating (surinam grass; 62 g ai/ha): 0
- Plant response rating, Surinam Grass (surinam grass; 125 g ai/ha): 10
- Plant response rating, Surinam Grass (surinam grass; 250 g ai/ha): 10
- Panicum, Fall plant response rating (fall panicum; 16 g ai/ha): 0
- Panicum, Fall plant response rating (fall panicum; 31 g ai/ha): 0
- Panicum, Fall plant response rating (fall panicum; 62 g ai/ha): 100
- Plant response rating, Panicum, Fall (fall panicum; 125 g ai/ha): 100
- Plant response rating, Panicum, Fall (fall panicum; 250 g ai/ha): 100
- Foxtail, Green plant response rating (green foxtail; 16 g ai/ha): 0
- Foxtail, Green plant response rating (green foxtail; 31 g ai/ha): 20
- Foxtail, Green plant response rating (green foxtail; 62 g ai/ha): 75
- Plant response rating, Foxtail, Green (green foxtail; 125 g ai/ha): 80
- Plant response rating, Foxtail, Green (green foxtail; 250 g ai/ha): 100
- Barnyardgrass plant response rating (barnyardgrass [2]; 16 g ai/ha, preemergence): 0
- Barnyardgrass plant response rating (barnyardgrass [2]; 31 g ai/ha, preemergence): 0
- Plant response rating, Barnyardgrass (barnyardgrass [2]; Preemergence, 62 g ai/ha): 30
- Plant response rating, Barnyardgrass (barnyardgrass [2]; preemergence, 125 g ai/ha): 75
- Plant response rating, Barnyardgrass (barnyardgrass [2]; preemergence, 250 g ai/ha): 98
- Arrowleaf Sida plant response rating (arrowleaf sida; 16 g ai/ha, preemergence): 35
- Arrowleaf Sida plant response rating (arrowleaf sida; 31 g ai/ha, preemergence): 40
- Plant response rating, Arrowleaf Sida (arrowleaf sida; Preemergence, 62 g ai/ha): 60
- Plant response rating, Arrowleaf Sida (arrowleaf sida; preemergence, 125 g ai/ha): 80
- Plant response rating, Arrowleaf Sida (arrowleaf sida; preemergence, 250 g ai/ha): 100
- Field Bindweed plant response rating (field bindweed; 16 g ai/ha): 0
- Field Bindweed plant response rating (field bindweed; 31 g ai/ha): 0
- Field Bindweed plant response rating (field bindweed; 62 g ai/ha): 25
- Plant response rating, Field Bindweed (field bindweed; 125 g ai/ha): 80
- Plant response rating, Field Bindweed (field bindweed; 250 g ai/ha): 95
- Kochia plant response rating (kochia; 31 g ai/ha): 25
- Kochia plant response rating (kochia; 62 g ai/ha): 65
- Plant response rating, Kochia (kochia; 125 g ai/ha): 100
- Plant response rating, Kochia (kochia; 250 g ai/ha): 100
- corn plant response (injury) rating, 0-100 at 31 g/ha (corn [3]; [5]): 10%
- corn plant response (injury) rating, 0-100 at 62 g/ha (corn [3]; [6]): 20%
- corn plant response (injury) rating, 0-100 at 125 g/ha (corn [3]; [7]): 25%
- corn plant response (injury) rating, 0-100 at 16 g/ha (corn [3]; [8]): 10%
- pest or weed control at 31 g/ha (wild poinsettia; [5]): 40%
- pest or weed control at 62 g/ha (wild poinsettia; [6]): 50%
- pest or weed control at 125 g/ha (wild poinsettia; [7]): 70%
- pest or weed control at 16 g/ha (wild poinsettia; [8]): 45%
- pest or weed control at 31 g/ha (palmer pigweed; [5]): 70%
- pest or weed control at 62 g/ha (palmer pigweed; [6]): 95%
- pest or weed control at 125 g/ha (palmer pigweed; [7]): 95%
- pest or weed control at 16 g/ha (palmer pigweed; [8]): 60%
- pest or weed control at 31 g/ha (barnyardgrass [4]; [5]): 10%
- pest or weed control at 62 g/ha (barnyardgrass [4]; [6]): 20%
- pest or weed control at 125 g/ha (barnyardgrass [4]; [7]): 30%
- pest or weed control at 16 g/ha (barnyardgrass [4]; [8]): 5%
